Measurements taken from patent US6277867A, “Pesticide compounds, compositions and process for the preparation thereof” (priority 1995, dated 2001).

How the values were obtained:
[1] = system: cotton bollworm (Helicoverpa armigera); assay: Synergistic activity on cotton bollworm following topical application; settings: in vivo
Description: Investigation of Synergistic Activity on Cotton Bollworm (Helicoverpa armigera) Following Topical Application
Treatment was performed similarity as described in Example 1. but L2 stadium grubs of cotton bollworms (Helicoverpa armigera) were treated as test animals. From the 24 hour dose--mortality data the LD50 (ng/grub) values were determined using probit analysis. None of the synergists acted at the applied 1000 ng/grub dose. Synergist ratio was calculated as the quotient of the LD50 values of carbofuran administered alone, and with the synergist. The experiments were performed in 2-4 replica.

[2] = system: house fly (Musca domestica); settings: in vivo, topical_or_ocular, 1440 min
Description: Investigation of Synergistic Activity on House Fly (Musca domestica) Following Topical Application
In two parallel experiments 10 female. 2-4 day old house flies were treated on the vental side of their thorax with 0.2 μl of the test solution, with the help of Hamilton MicroLab P microdispenser. Beside fixed synergist dose of 1000 ng/fly the animals were treated with carbofuran at a dose of 20 ng/fly. For solvent cellosolve was used. Selection and counting of the flies were performed under the action of CO2. After treatment the flies were kept in plastic cups covered with tulle. Mortality after 24 hours was expressed in %.

flies = assay: Comparative investigations with known reference synergists on flies treated with carbofuran; assay type: in vivo; settings: flies treated with carbofuran and 1000 ng of the synergist
Description: These SR50 ratios were compared to those of the new compounds prepared by us.

[3] = system: house fly (Musca domestica); assay: Effect of the active ingredient:synergist ratio on the synergistic activity (flies)
Description: Effect of the Active Ingredient:Synergist Ratio on the Synergistic Activity
Treatment was performed as described in Example 1. using Hamilton MicroLab P microdispenser. In two parallel experiments 10 female -3 day old flies were treated on the ventral side of their thorax with 0.2 μl test solution. Beside 1000-400-200-80 ng/fly fixed doses of the synergist they were treated with constant 20 ng/fly CARBOFURAN®. Selection and counting of the flies were performed under the action of CO2. After treatment the flies were kept in plastic cups covered with tulle. After 24 hours mortality % was recorded. Depending on the results the experiments were performed in 2-4 replica.

[4] = system: pea aphid (Acyrthosiphon pisun); assay: Synergist activity against pea aphid, field trial; assay type: in vivo; settings: two days after treatment
Description: Synergist Activity Against Pea Aphid (Acyrthosiphon pisun)
Synergist activity of compound No. 599 was tested against pea aphid (Acyrthosiphon pisun) in field trials on small plots (10 m^2). 300 l/ha spray volume was applied using motoric sprayer (Maruyama). Efficacy was expressed by the average number of aphids/leaf before, and two days after the treatment, respectively. (Henderson and Tilton: J. Econ. Entomol., 48:157, 1955).

[5] = system: resistant house fly, IX strain; assay: Synergistic activity on resistant house fly, IX strain; assay type: in vivo, Musca domestica
Description: (§1) Investigation of Synergistic Activity on Resistant House Fly (Musca domestica) Populations
(§2) Investigation was carried out as described in biological Example 1. LD50 values and synergist ratios were determined as given in Example 2.

[6] = system: resistant house fly, INSEL strain; assay: Synergistic activity on resistant house fly, INSEL strain; assay type: in vivo, Musca domestica
Description: as §1, §2

[7] = system: two-spotted spider mite (Tetranychus urticae); assay: Synergism of acaricidal effect on two-spotted spider mite (leaf-disc dip); assay type: in vivo; settings: alone, 48 hours, read-out: Mortality %
Description: Synergism of Acaricidal Effect Investigated on Two-spotted Spider Mite (Tetranychus urticae)
From the first pair of leaves of a 1 week old bean plant leaf-discs of […] diameter were cut which were treated by dipping them (5 min) into the test solution consisting of the active ingredient and the synergist in definite concentrations. For the preparation of the stock solutions of required concentration, 10% acetone as co-solvent and 0.1% Tween-80 as detergent were applied. The dried leaf-discs were placed on wet surface and they were infected with […]-up female mites per leaf. After 48 hours the mortality was recorded using microscope and a brush. The experiment was performed in 4 replica.

[8] = system: cotton bollworm (Helicoverpa armigera); assay: Synergist spectrum on cotton bollworm, topical; assay type: in vivo
Description: (§3) Investigation of Synergist Spectrum on House Fly (Musca domestica) and Cotton Bollworm (Helicoverpa armigera) Following Topical Administration
(§4) Synerzistic activities of materials No. 279 and 599 of the present invention for various active ingredients were determined on house fly (Musca domestica) and cotton bollworm (Helicoverpa armigera) using methods of treatments as described in biological Examples 1 and 2. For the active ingredients ISO common names are given (see: Pesticide Manual 1994).

[9] = system: house fly (Musca domestica); assay: Synergist spectrum on house fly, topical; assay type: in vivo
Description: as §3, §4

[10] = carbofuran 20 ng/fly + synergist 80 ng/fly
[11] = carbofuran 20 ng/fly + synergist 200 ng/fly
[12] = carbofuran 20 ng/fly + synergist 400 ng/fly
[13] = house fly, in vivo, topical_or_ocular

CC#CCOCc1ccc(OC)c(OC)c1 [Compound 493, (2-Butynyloxy-methyl)-3,4-dimethoxy-benzene]
Synergist ratio [1]: > 5
mortality % [2]: 100%
Synergist ratio SR50 (flies): 32.84
24 hour mortality (%) [3, 10]: 75%
24 hour mortality (%) [3, 11]: 88%
24 hour mortality (%) [3, 12]: 94%
24 hour mortality (%) [3, 13]: 100%

N#Cc1nn(-c2c(Cl)cc(C(F)(F)F)cc2Cl)c(N)c1[S+]([O-])C(F)(F)F (stereo not shown) [FIPRONIL]
E (%) ([4]; dose 240 act. ingr./ha): 94.6%

O=[N+]([O-])NC1=NCCN1Cc1ccc(Cl)nc1 [IMIDACLOPRID]
E (%) ([4]; dose 120 act. ingr./ha): 98.4%

CNC(=O)Oc1ccccc1C(C)C [ISOPROCARB, reference compound]
LD50 ([5]; active ingredient alone): > 100000 ng/fly
LD50 ([6]; active ingredient alone): > 100000 ng/fly

CC#CCOCc1cccc2ccccc12 [Compound 279, 1-naphthyl-methyl 2-butynyl ether]
LD50 ([5]; ALDICARB + 279): 507 ng/fly
SR ([5]; ALDICARB + 279): 4
LD50 ([5]; BENDIOCARB + 279): 746 ng/fly
SR ([5]; BENDIOCARB + 279): 134
LD50 ([5]; CARBOFURAN + 279): 94 ng/fly
SR ([5]; CARBOFURAN + 279): 4760
LD50 ([5]; ISOPROCARB + 279): 2145 ng/fly
SR ([5]; ISOPROCARB + 279): 47
LD50 ([5]; METHOMYL + 279): 109 ng/fly
SR ([5]; METHOMYL + 279): 5
LD50 ([5]; PIRIMICARB + 279): 3562 ng/fly
SR ([5]; PIRIMICARB + 279): 115
mortality at 31 ppm ([7]; 31 ppm): 0%
mortality at 62 ppm ([7]; 62 ppm): 6%
mortality at 125 ppm ([7]; 125 ppm): 8%
mortality at 250 ppm ([7]; 250 ppm): 18%
mortality at 500 ppm ([7]; 500 ppm): 30%
Synergist ratio [1]: > 5
mortality % [2]: 72%
Synergist ratio SR50 (flies): 28.7
Synergist ratio ([8]; with AZINPHOSMETHYL): > 5
Synergist ratio ([8]; with BENDIOCARB): > 10
Synergist ratio ([8]; with CARBOFURAN): > 10
Synergist ratio ([8]; with CHLORPYRIPHOS): > 5
Synergist ratio ([8]; with LINDAN): > 5
Synergist ratio ([8]; with PROPOXUR): > 10
LD50 ([6]; ALDICARB + 279): 172 ng/fly
SR ([6]; ALDICARB + 279): 4
LD50 ([6]; BENDIOCARB + 279): 150 ng/fly
SR ([6]; BENDIOCARB + 279): 667
LD50 ([6]; CARBOFURAN + 279): 29 ng/fly
SR ([6]; CARBOFURAN + 279): 530
LD50 ([6]; ESBIOL + 279): 794 ng/fly
SR ([6]; ESBIOL + 279): 13
LD50 ([6]; ISOPROCARB + 279): 983 ng/fly
SR ([6]; ISOPROCARB + 279): 102
LD50 ([6]; METHOMYL + 279): 46 ng/fly
SR ([6]; METHOMYL + 279): 10
LD50 ([6]; PIRIMICARB + 279): 696 ng/fly
SR ([6]; PIRIMICARB + 279): 145
Synergist ratio ([9]; with AMINOCARB): > 20
Synergist ratio ([9]; with AZINPHOSMETHYL): > 5
Synergist ratio ([9]; with BENDIOCARB): > 20
Synergist ratio ([9]; with CARBOFURAN): > 20
Synergist ratio ([9]; with CHLORPYRIPHOS): > 5
Synergist ratio ([9]; with DIOXACARB): > 20
Synergist ratio ([9]; with ESBIOL): > 5
Synergist ratio ([9]; with FENOBUCARB): > 10
Synergist ratio ([9]; with IMIDACLOPRID): > 5
Synergist ratio ([9]; with ISOPROCARB): > 40
Synergist ratio ([9]; with LINDAN): > 5
Synergist ratio ([9]; with METHOMYL): > 10
Synergist ratio ([9]; with PIRIMICARB): > 20
Synergist ratio ([9]; with PROPOXUR): > 20
Synergist ratio ([9]; with THIODICARB): > 10

Cc1nc(N(C)C)nc(OC(=O)N(C)C)c1C [PIRIMICARB, reference compound]
LD50 ([5]; active ingredient alone): > 100000 ng/fly
LD50 ([6]; active ingredient alone): > 100000 ng/fly
E (%) ([4]; dose 80 act. ingr./ha): 86.3%
E (%) ([4]; dose 250 act. ingr./ha): 93.8%

CC#CCOC(C)c1ccc(OC)c(OC)c1 (stereo not shown) [Compound 599]
Synergist ratio [1]: > 5
mortality % [2]: 100%
Synergist ratio ([8]; with BENDIOCARB): > 20
Synergist ratio ([8]; with CARBOFURAN): > 20
Synergist ratio ([8]; with DIOXACARB): > 20
Synergist ratio ([8]; with ISOPROCARB): > 20
Synergist ratio ([8]; with PERMETHRIN): > 10
Synergist ratio ([8]; with PROPOXUR): > 20
Synergist ratio ([9]; with AMINOCARB): > 20
Synergist ratio ([9]; with BENDIOCARB): > 40
Synergist ratio ([9]; with CARBOFURAN): > 20
Synergist ratio ([9]; with DIOXACARB): > 40
Synergist ratio ([9]; with ESBIOL): > 10
Synergist ratio ([9]; with FENOBUCARB): > 20
Synergist ratio ([9]; with IMIDACLOPRID): > 5
Synergist ratio ([9]; with ISOPROCARB): > 40
Synergist ratio ([9]; with METHOMYL): > 10
Synergist ratio ([9]; with PERMETHRIN): > 5
Synergist ratio ([9]; with PIRIMICARB): > 20
Synergist ratio ([9]; with PROPOXUR): > 40
Synergist ratio ([9]; with TETRAMETHRIN): > 5
Synergist ratio ([9]; with THIODICARB): > 10
24 hour mortality (%) [3, 10]: 65%
24 hour mortality (%) [3, 11]: 90%
24 hour mortality (%) [3, 12]: 95%
24 hour mortality (%) [3, 13]: 100%

CC#CCOC(=O)c1ccc2c(c1)OCO2 [Compound 502, 2-Butynyl 1,3-benzodioxol-5-carboxylate]
Synergist ratio [1]: > 5
mortality % [2]: 47%
Synergist ratio SR50 (flies): 6.28

CC#CCOCc1c(Cl)cccc1Cl [Compound 503, 2,6-Dichloro-1-(2-butynyloxy-methyl)-benzene]
Synergist ratio [1]: > 5
mortality % [2]: 95%
Synergist ratio SR50 (flies): 21.16
24 hour mortality (%) [3, 10]: 37%
24 hour mortality (%) [3, 11]: 50%
24 hour mortality (%) [3, 12]: 65%
24 hour mortality (%) [3, 13]: 93%
